Data on 6 compounds can be found in paper PMC11954892, “β-Carotene alleviates substrate inhibition caused by asymmetric cooperativity” (Nature Communications, 2025).

Assay [1] deals with T1, NbUGT72AY1 (Nicotiana benthamiana, UniProt A0A8K1ZRH3).
T1 sequence (A0A8K1ZRH3 1-477): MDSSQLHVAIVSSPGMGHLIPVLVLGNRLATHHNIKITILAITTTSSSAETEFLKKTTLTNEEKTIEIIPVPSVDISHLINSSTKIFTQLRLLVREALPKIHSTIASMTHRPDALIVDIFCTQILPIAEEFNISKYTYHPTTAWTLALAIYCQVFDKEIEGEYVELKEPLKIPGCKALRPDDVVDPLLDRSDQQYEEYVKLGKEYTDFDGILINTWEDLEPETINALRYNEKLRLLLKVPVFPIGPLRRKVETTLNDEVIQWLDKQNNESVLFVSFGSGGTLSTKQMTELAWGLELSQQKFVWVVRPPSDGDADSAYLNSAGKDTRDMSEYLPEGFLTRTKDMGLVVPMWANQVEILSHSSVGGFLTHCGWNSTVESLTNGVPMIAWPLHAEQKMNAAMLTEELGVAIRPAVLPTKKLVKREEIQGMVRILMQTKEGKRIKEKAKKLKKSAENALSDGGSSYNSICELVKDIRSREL
The experiment in a line: X-ray co-crystal structure (ternary complex with scopoletin). The assay is classed as binding.

Assay [2] deals with T1, NbUGT72AY1. Kind of assay: UDP-Glo glucosyltransferase assay, purified enzyme (reactivation of substrate-inhibited enzyme). It is filed as biochemical. Details: N-terminal GST tag.
Assay [3] deals with T1, NbUGT72AY1. The experiment in a line: HDX-MS; inhibition of UDPG glucohydrolase and relief of substrate inhibition (UDP-Glo, purified enzyme). The assay is classed as binding.
The target in assay [4] is T1, NbUGT72AY1. The experiment in a line: ITC ([…] stoichiometry); co-crystal structures; HDX-MS; enzyme kinetics. It is filed as binding.
Assay [5] concerns the target T1, NbUGT72AY1. Kind of assay: HDX-MS; CD; inhibition of UDPG glucohydrolase and relief of substrate inhibition (UDP-Glo, purified enzyme). It is filed as binding.

Take `O=c1ccn([C@@H]2O[C@H](COP(=O)(O)OP(=O)(O)O[C@H]3O[C@H](CO)[C@@H](O)[C@H](O)[C@H]3F)[C@@H](O)[C@H]2O)c(=O)[nH]1` [UDP2FG]: the “X-ray co-crystal structure (ternary complex with scopoletin)” value at NbUGT72AY1 [1] is reported as “ternary complex V (NbUGT72AY1•scopoletin/UDP2FG: 9J9K) most of the protein residues are visible in the electron density maps”. As for `CC(C)=CCC/C(C)=C/C=C/C(C)=C/C=C/C(C)=C/C=C/C=C(C)/C=C/C=C(C)/C=C/C=C(\C)CCC=C(C)C` [lycopene], the “UDP-Glo glucosyltransferase assay, purified enzyme (reactivation of substrate-in)” value at NbUGT72AY1 [2] was “Even acyclic lycopene shows a concentration-dependent reactivation of the substrate-inhibited enzyme”. For the compound `CC1=C(/C=C/C(C)=C/C=C/C(C)=C/CO)C(C)(C)CCC1` [retinol], the “HDX-MS; inhibition of UDPG glucohydrolase and relief of substrate inhibition (UD)” value at NbUGT72AY1 [3] is “concentration-dependent reactivation of the substrate-inhibited enzyme by β-carotene, β-apo-8’-carotenal, and retinol was detected”. In general, Kd refers to the free concentration of one partner at which half of the binding sites on the other are occupied at equilibrium, for simple one-to-one binding. A low value points to higher affinity. `COc1cc2ccc(=O)oc2cc1O` [scopoletin] had a dissociation constant (Kd) on NbUGT72AY1 [4] of 4.5 ± 1.1 µM. With `CC1=C(/C=C/C(C)=C/C=C/C(C)=C/C=C/C=C(C)/C=C/C=C(\C)C=O)C(C)(C)CCC1` [β-apo-8’-carotenal], the “HDX-MS; inhibition of UDPG glucohydrolase and relief of substrate inhibition (UD)” value on NbUGT72AY1 [3] was “concentration-dependent reactivation of the substrate-inhibited enzyme by β-carotene, β-apo-8’-carotenal, and retinol was detected”. Regarding `CC1=C(/C=C/C(C)=C/C=C/C(C)=C/C=C/C=C(C)/C=C/C=C(C)/C=C/C2=C(C)CCCC2(C)C)C(C)(C)CCC1` [β-carotene], on NbUGT72AY1 [5], the “HDX-MS; CD; inhibition of UDPG glucohydrolase and relief of substrate inhibition” value is “with β-carotene being the most potent in suppressing glucohydrolase activity in accordance with its strong inhibition of SI”.
